Experimental data taken from patent US12478605B2, “Biochanin a derivatives for treatment of BEST1-related retinopathies” (Universität Regensburg, priority 2020, dated 2025).
Where a name gives a salt, the structure may show the parent alone.

biological target: T1, mutant BEST1 R218C (Homo sapiens, UniProt O76090, R218C); test: YFP-based I- efflux assay in MDCKII cells co-expressing YFP and mutant BEST1 R218C; assay type: cell-based; conditions: 5 μM, compound addition for 24 h, FIGS. 6-8
T1 construct: expressed in transfected cells
T1 sequence (O76090 1-585 R218C): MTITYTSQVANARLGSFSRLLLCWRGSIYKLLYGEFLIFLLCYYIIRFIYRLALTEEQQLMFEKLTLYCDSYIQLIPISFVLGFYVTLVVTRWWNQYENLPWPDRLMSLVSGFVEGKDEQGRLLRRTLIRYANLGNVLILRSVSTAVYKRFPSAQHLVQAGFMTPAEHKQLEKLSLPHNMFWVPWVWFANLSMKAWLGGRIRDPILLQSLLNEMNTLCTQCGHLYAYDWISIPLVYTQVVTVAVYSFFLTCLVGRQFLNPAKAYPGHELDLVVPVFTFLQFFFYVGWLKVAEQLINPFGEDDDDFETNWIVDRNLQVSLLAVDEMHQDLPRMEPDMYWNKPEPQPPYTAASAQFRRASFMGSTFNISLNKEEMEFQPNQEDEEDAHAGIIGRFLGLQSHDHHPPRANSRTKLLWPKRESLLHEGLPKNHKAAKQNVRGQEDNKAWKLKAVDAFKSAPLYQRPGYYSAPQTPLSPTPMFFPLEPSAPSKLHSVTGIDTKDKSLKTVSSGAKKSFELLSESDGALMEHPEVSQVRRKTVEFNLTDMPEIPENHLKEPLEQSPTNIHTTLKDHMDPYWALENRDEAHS
Protocol: MDCKII cells co-expressing yellow fluorescence protein (YFP) and mutant BEST1 R218C were seeded on black 96-well plates and cultivated for 6 days to achieve polarity, a crucial requirement for correct basolateral localization of BEST1 in epithelial cells. Compounds were tested at 5 μM concentration in a 96-well format. After compound addition for 24 h, cells were subjected to an outwardly directed iodid (I^−)-gradient to drive BEST1-mediated I^− efflux and produce increasing fluorescence signals. Each assay consisted of recording of YFP quenching after I^− pre-incubation for 6 min (=100% value), followed by 7 min of recording of increasing fluorescence after addition of the chloride (Cr) containing solution. Changes of fluorescence intensities were monitored on a plate reader. The effect on the kinetics of I— efflux was tested for Biochanin A (FIG. 6A), Trimethoxyisoflavone (FIG. 6B), 5,4-dimethoxy hydroxyisoflavone (FIG. 6C), Biochanin A-7-methyl ether (FIG. 6D), Biochanin A-7-acetate (FIG. 6E), Biochanin A diacetate (FIG. 6F), Biochanin A-7-pentanoate (FIG. 6G), Biochanin A dipentanoate (FIG. 6H), Biochanin A-7-pivalate (FIG. 7A), Biochanin A-dipavalate (FIG. 7B), Biochanin A-7-acrylate (FIG. 7C), Biochanin A diacrylate (FIG. 7D), Biochanin A-7-methyl fumarate (FIG. 7E), Biochanin A-di(methyl fumarate) (FIG. 7F), Biochanin A-7-butylcarbamate (FIG. 7G), Biochanin A di(butylcarbamate) (FIG. 7H), Biochanin A-7-phosphate disodium salt (FIG. 8A), Biochanin A-7-isopropylate (FIG. 8B), 7-pivaloxymethyl-Biochanin A (FIG. 8C), Biochanin A diisopropylate (FIG. 8D), Biochanin A-7-isopropyl carbonate (FIG. 8E), Biochanin A diisopropyl carbonate (FIG. 8F), Isopropyloxycarbonylmethoxy-Biochanin A (FIG. 8G).

Compound | anion transport activity (kinetics of I- efflux) in comparison to untreated cells
CCCCNC(=O)Oc1cc(OC(=O)NCCCC)c2c(=O)c(-c3ccc(OC)cc3)coc2c1 [Biochanin A di(butylcarbamate)] | strongly increased
C=CC(=O)Oc1cc(OC(=O)C=C)c2c(=O)c(-c3ccc(OC)cc3)coc2c1 [Biochanin A diacrylate] | strongly increased
CCCCC(=O)Oc1cc(OC(=O)CCCC)c2c(=O)c(-c3ccc(OC)cc3)coc2c1 [Biochanin A dipentanoate] | strongly increased
CCCCNC(=O)Oc1cc(O)c2c(=O)c(-c3ccc(OC)cc3)coc2c1 [Biochanin A-7-butylcarbamate] | no or only minimal effect
COc1ccc(-c2coc3cc(OC)cc(O)c3c2=O)cc1 [Biochanin A-7-methyl ether] | no or only minimal effect
COC(=O)/C=C/C(=O)Oc1cc(O)c2c(=O)c(-c3ccc(OC)cc3)coc2c1 [Biochanin A-7-methyl fumarate] | no or only minimal effect
CCCCC(=O)Oc1cc(O)c2c(=O)c(-c3ccc(OC)cc3)coc2c1 [Biochanin A-7-pentanoate] | no or only minimal effect
COc1ccc(-c2coc3cc(OP(=O)([O-])[O-])cc(O)c3c2=O)cc1.[Na+].[Na+] [Biochanin A-7-phosphate disodium salt] | noticeable increased
COc1ccc(-c2coc3cc(OC(=O)C(C)(C)C)cc(OC(=O)C(C)(C)C)c3c2=O)cc1 [Biochanin A-dipavalate, Biochanin A dipivalate] | noticeable increased
COc1ccc(-c2coc3cc(O)cc(O)c3c2=O)cc1 [Biochanin A] | no or only minimal effect

Continued, values first:

anion transport activity (kinetics of I- efflux) in comparison to untreated cells | Compound
noticeable increased | COc1ccc(-c2coc3cc(OCOC(=O)OC(C)C)cc(O)c3c2=O)cc1
no or only minimal effect | COc1ccc(-c2coc3cc(O)cc(OC)c3c2=O)cc1 [5,4-dimethoxy-7-hydroxyisoflavone]
noticeable increased | COc1ccc(-c2coc3cc(OCOC(=O)C(C)(C)C)cc(O)c3c2=O)cc1 [7-pivaloxymethyl-Biochanin A, 7-Pivaloxymethyl-Biochanin A]
strongly increased | COc1ccc(-c2coc3cc(OC(=O)OC(C)C)cc(OC(=O)OC(C)C)c3c2=O)cc1 [Biochanin A diisopropyl carbonate]
strongly increased | COc1ccc(-c2coc3cc(OC(=O)C(C)C)cc(OC(=O)C(C)C)c3c2=O)cc1 [Biochanin A diisopropylate]
no or only minimal effect | COc1ccc(-c2coc3cc(OC(C)=O)cc(O)c3c2=O)cc1 [Biochanin A-7-acetate]
noticeable increased | C=CC(=O)Oc1cc(O)c2c(=O)c(-c3ccc(OC)cc3)coc2c1 [Biochanin A-7-acrylate]
strongly increased | COc1ccc(-c2coc3cc(OC(=O)OC(C)C)cc(O)c3c2=O)cc1 [Biochanin A-7-isopropyl carbonate]
no or only minimal effect | COc1ccc(-c2coc3cc(OC(=O)C(C)C)cc(O)c3c2=O)cc1 [Biochanin A-7-isopropylate]
no or only minimal effect | COc1ccc(-c2coc3cc(OC(=O)C(C)(C)C)cc(O)c3c2=O)cc1 [Biochanin A-7-pivalate]
strongly increased | COC(=O)/C=C/C(=O)Oc1cc(OC(=O)/C=C/C(=O)OC)c2c(=O)c(-c3ccc(OC)cc3)coc2c1 [Biochanin A-di(methyl fumarate), Biochanin A di(methyl fumarate)]

biological target: T1, mutant BEST1 R218C; test: YFP-halide transport assay (I- influx), MDCKII cells expressing mutant BEST1-R218C; assay type: cell-based; conditions: MDCKII cells; cell line not stated; FIG. 4D
Protocol: Human hiPSC-RPE or MDCKII cells were transduced via lentivirus particles which were produced by co-transfecting HEK293T cells with the yellow fluorescence protein (YFPH148Q/I152L)-pLJM1 and helper plasmids pMD2.G and psPAX2 using the Ca^2+ phospate transfection method. After six weeks of cultivation in 96-well black microtiter plates, cells were incubated with 100 mM Cl^− containing solution and basal YFP fluorescence was measured in a Tecan microplate reader. Subsequently Cl^− was replaced with equimolar I^− and decrease of YFP fluorescence intensity was monitored for another 2 min in 10 sec intervals.
To analyze BEST1-mediated anion transport in the cell lines generated in the previous examples, a well-established halide transport assay (Galietta et al., 2001) was adapted. […] Addition of I— leads to specific YFP quenching over time and changes of fluorescence intensities can be monitored on a plate reader. MDCKII cells were incubated with 100 mM Cl— containing solution and steady state YFP fluorescence signal intensities were measured after 6 minutes. Subsequently, Cl— was replaced by equimolar I— and anion permeability was monitored by decreasing YFP intensities as a result of BEST1-mediated I— influx in a time course up to 2 minutes (FIG. 2B). For several independent BEST1 wildtype cell lines a fast kinetic of decreasing fluorescence intensities to ˜30 to 40% was observed while the untransfected control cell lines remained flat (FIGS. 2C and D).
Example 8—Evaluation of BioA(C2H3O2)2 activity in MDCKII cells MDCKII cells co-expressing YFP and BEST1 wildtype or mutant p.(R218C) were seeded on black 96-well plates and cultivated for 6 days to achieve polarity, a requirement for correct basolateral localization of BEST1 in epithelial cells. Compounds were tested separately at 10 μM concentration in a 96-well format. After compound addition for 24 h, cells were subjected to an inwardly directed I— gradient to drive I— influx and produce decreasing (quenched) fluorescence signals. […]

effect on BEST1-mediated I- influx | Compound
no effect | COc1ccc(-c2coc3cc(O)cc(O)c3c2=O)cc1 [Biochanin A]
